Source: patent US6872690B2, “Herbicidal 2-alkynyl-pyri (mi) dines” (WYETH, priority 2001, dated 2005)

Columns and labels:
Format in all cases: in vivo
Ipomoea hederacea [1] = experiment: Post-emergence herbicidal activity test; settings: 2-4 weeks after treatment
Experimental: (§1) To evaluate their herbicidal activity, compounds according to the invention are tested using a representative range of plants:
(§2) These acetone solutions are diluted with water and the resulting formulations applied at dosage levels equivalent of about 0.025 to 0. 4 kg per hectare of test compound per pot. After spraying the plants are placed on greenhouse benches and are cared for in the usual manner, commensurate with conventional greenhouse practices. From 2 to 4 weeks after treatment, the seedling plants are examined and rated according to the rating system provided above.

Galium aparine [2] = experiment: Post-emergence herbicidal activity test; settings: 2-4 weeks after treatment
Experimental: as §1, §2

Cassia obtusifolia [3] = experiment: Post-emergence herbicidal activity test; settings: 2-4 weeks after treatment
Experimental: as §1, §2

Stellaria media [4] = experiment: Post-emergence herbicidal activity test; settings: 2-4 weeks after treatment
Experimental: as §1, §2

Zea mays [5] = experiment: Post-emergence herbicidal activity test; settings: 2-4 weeks after treatment
Experimental: as §1, §2

Abutilon theophrasti [6] = experiment: Post-emergence herbicidal activity test; settings: 2-4 weeks after treatment
Experimental: as §1, §2

Matricaria inodora [7] = experiment: Post-emergence herbicidal activity test; settings: 2-4 weeks after treatment
Experimental: as §1, §2

Echinochloa crus-galli [8] = experiment: Post-emergence herbicidal activity test; settings: 2-4 weeks after treatment
Experimental: as §1, §2

Orysa sativa [9] = experiment: Post-emergence herbicidal activity test; settings: 2-4 weeks after treatment
Experimental: as §1, §2

Triticum aestivum [10] = experiment: Post-emergence herbicidal activity test; settings: 2-4 weeks after treatment
Experimental: as §1, §2

Glycine max [11] = experiment: Post-emergence herbicidal activity test; settings: 2-4 weeks after treatment
Experimental: as §1, §2

Setaria viridis [12] = experiment: Post-emergence herbicidal activity test; settings: 2-4 weeks after treatment
Experimental: as §1, §2

Alopecurus myosuroides [13] = experiment: Post-emergence herbicidal activity test; settings: 2-4 weeks after treatment
Experimental: as §1, §2

Digitaria sanguinalis [14] = experiment: Post-emergence herbicidal activity test; settings: 2-4 weeks after treatment
Experimental: as §1, §2

Ipomoea hederacea [15] = experiment: Pre-emergence test; settings: 3 weeks after treatment
Experimental: as §1
(§3) The pre-emergence tests involve spraying a liquid formulation of the compound onto the soil in which the seeds of the plant species mentioned above has recently been sown.
(§4) The soil used in the tests is a prepared horticultural loam. The formulations used in the tests are prepared from solutions of the test compounds in acetone containing 0.4% by weight of an alkyl-phenol/ethylene oxide condensate available under the trade mark TRITON X-155. These acetone solutions are diluted with water and the resulting formulations applied at dosage levels corresponding to 0.013 kg, 0.025 kg, 0.100 kg or 0.400 kg of active material per hectare in a volume equivalent to 900 litres per hectare. In these tests untreated sown soil are used as controls. From 2 to 4 weeks after treatment, the tests are terminated and each pot is examined and rated according to the rating system set forth below: […]

Galium aparine [16] = experiment: Pre-emergence test; settings: 3 weeks after treatment
Experimental: as §1, §3, §4

Cassia obtusifolia [17] = experiment: Pre-emergence test; settings: 3 weeks after treatment
Experimental: as §1, §3, §4

Stellaria media [18] = experiment: Pre-emergence test; settings: 3 weeks after treatment
Experimental: as §1, §3, §4

Lamium purpureum = experiment: Pre-emergence test; settings: 3 weeks after treatment
Experimental: as §1, §3, §4

Zea mays [19] = experiment: Pre-emergence test; settings: 3 weeks after treatment
Experimental: as §1, §3, §4

Abutilon theophrasti [20] = experiment: Pre-emergence test; settings: 3 weeks after treatment
Experimental: as §1, §3, §4

Matricaria inodora [21] = experiment: Pre-emergence test; settings: 3 weeks after treatment
Experimental: as §1, §3, §4

Echinochloa crus-galli [22] = experiment: Pre-emergence test; settings: 3 weeks after treatment
Experimental: as §1, §3, §4

Orysa sativa [23] = experiment: Pre-emergence test; settings: 3 weeks after treatment
Experimental: as §1, §3, §4

Triticum aestivum [24] = experiment: Pre-emergence test; settings: 3 weeks after treatment
Experimental: as §1, §3, §4

Glycine max [25] = experiment: Pre-emergence test; settings: 3 weeks after treatment
Experimental: as §1, §3, §4

Setaria viridis [26] = experiment: Pre-emergence test; settings: 3 weeks after treatment
Experimental: as §1, §3, §4

Alopecurus myosuroides [27] = experiment: Pre-emergence test; settings: 3 weeks after treatment
Experimental: as §1, §3, §4

Digitaria sanguinalis [28] = experiment: Pre-emergence test; settings: 3 weeks after treatment
Experimental: as §1, §3, §4

COc1cc(C#Cc2ccccc2)nc(Oc2cc(C(F)(F)F)nn2C)c1 [Example 27]
Post-emergence application IPOHE (Ipomoea hederacea [1]; 0.100 kg/ha): 6 (6-Herbicidal effect) | Post-emergence application IPOHE (Ipomoea hederacea [1]; 0.400 kg/ha): 6 (6-Herbicidal effect) | Post-emergence application GALAP (Galium aparine [2]; 0.100 kg/ha): 6 (6-Herbicidal effect) | Post-emergence application GALAP (Galium aparine [2]; 0.400 kg/ha): 7 (7-Good herbicidal effect) | Post-emergence application CASOB (Cassia obtusifolia [3]; 0.100 kg/ha): 7 (7-Good herbicidal effect) | Post-emergence application CASOB (Cassia obtusifolia [3]; 0.400 kg/ha): 7 (7-Good herbicidal effect) | Post-emergence application STEME (Stellaria media [4]; 0.100 kg/ha): 6 (6-Herbicidal effect) | Post-emergence application STEME (Stellaria media [4]; 0.400 kg/ha): 8 (8-Approaching complete kill) | Post-emergence application ZEAMX (Zea mays [5]; 0.100 kg/ha): 3 (3-Moderate effect) | Post-emergence application ZEAMX (Zea mays [5]; 0.400 kg/ha): 3 (3-Moderate effect) | Post-emergence application ABUTH (Abutilon theophrasti [6]; 0.100 kg/ha): 5 (5-Definite injury) | Post-emergence application ABUTH (Abutilon theophrasti [6]; 0.400 kg/ha): 6 (6-Herbicidal effect) | Post-emergence application MATIN (Matricaria inodora [7]; 0.100 kg/ha): 5 (5-Definite injury) | Post-emergence application MATIN (Matricaria inodora [7]; 0.400 kg/ha): 7 (7-Good herbicidal effect) | Post-emergence application ECHCG (Echinochloa crus-galli [8]; 0.100 kg/ha): 5 (5-Definite injury) | Post-emergence application ECHCG (Echinochloa crus-galli [8]; 0.400 kg/ha): 7 (7-Good herbicidal effect) | Post-emergence application ORYSA (Orysa sativa [9]; 0.100 kg/ha): 3 (3-Moderate effect) | Post-emergence application ORYSA (Orysa sativa [9]; 0.400 kg/ha): 3 (3-Moderate effect) | Post-emergence application TRZWA (Triticum aestivum [10]; 0.100 kg/ha): 2 (2-Slight effect) | Post-emergence application TRZWA (Triticum aestivum [10]; 0.400 kg/ha): 3 (3-Moderate effect) | Post-emergence application GLXMA (Glycine max [11]; 0.100 kg/ha): 4 (4-Injury) | Post-emergence application GLXMA (Glycine max [11]; 0.400 kg/ha): 6 (6-Herbicidal effect) | Post-emergence application SETVI (Setaria viridis [12]; 0.100 kg/ha): 7 (7-Good herbicidal effect) | Post-emergence application SETVI (Setaria viridis [12]; 0.400 kg/ha): 8 (8-Approaching complete kill) | Post-emergence application ALOMY (Alopecurus myosuroides [13]; 0.100 kg/ha): 6 (6-Herbicidal effect) | Post-emergence application ALOMY (Alopecurus myosuroides [13]; 0.400 kg/ha): 8 (8-Approaching complete kill) | Post-emergence application DIGSA (Digitaria sanguinalis [14]; 0.100 kg/ha): 4 (4-Injury) | Post-emergence application DIGSA (Digitaria sanguinalis [14]; 0.400 kg/ha): 6 (6-Herbicidal effect) | Assessment (pre-emergence application) IPOHE (Ipomoea hederacea [15]; 0.025 kg/ha): 3 (3-Moderate effect) | Assessment (pre-emergence application) IPOHE (Ipomoea hederacea [15]; 0.100 kg/ha): 4 (4-Injury) | Assessment (pre-emergence application) IPOHE (Ipomoea hederacea [15]; 0.400 kg/ha): 6 (6-Herbicidal effect) | Assessment (pre-emergence application) GALAP (Galium aparine [16]; 0.025 kg/ha): 1 (1-Trace effect) | Assessment (pre-emergence application) GALAP (Galium aparine [16]; 0.100 kg/ha): 2 (2-Slight effect) | Assessment (pre-emergence application) GALAP (Galium aparine [16]; 0.400 kg/ha): 6 (6-Herbicidal effect) | Assessment (pre-emergence application) CASOB (Cassia obtusifolia [17]; 0.025 kg/ha): 7 (7-Good herbicidal effect) | Assessment (pre-emergence application) CASOB (Cassia obtusifolia [17]; 0.400 kg/ha): 8 (8-Approaching complete kill) | Assessment (pre-emergence application) STEME (Stellaria media [18]; 0.025 kg/ha): 9 (9-Complete kill) | Assessment (pre-emergence application) STEME (Stellaria media [18]; 0.100 kg/ha): 9 (9-Complete kill) | Assessment (pre-emergence application) STEME (Stellaria media [18]; 0.400 kg/ha): 9 (9-Complete kill) | Assessment (pre-emergence application) LAMPU (Lamium purpureum; 0.025 kg/ha): 8 (8-Approaching complete kill) | Assessment (pre-emergence application) LAMPU (Lamium purpureum; 0.100 kg/ha): 8 (8-Approaching complete kill) | Assessment (pre-emergence application) LAMPU (Lamium purpureum; 0.400 kg/ha): 9 (9-Complete kill) | Assessment (pre-emergence application) ZEAMX (Zea mays [19]; 0.025 kg/ha): 1 (1-Trace effect) | Assessment (pre-emergence application) ZEAMX (Zea mays [19]; 0.100 kg/ha): 2 (2-Slight effect) | Assessment (pre-emergence application) ZEAMX (Zea mays [19]; 0.400 kg/ha): 3 (3-Moderate effect) | Assessment (pre-emergence application) ABUTH (Abutilon theophrasti [20]; 0.025 kg/ha): 5 (5-Definite injury) | Assessment (pre-emergence application) ABUTH (Abutilon theophrasti [20]; 0.100 kg/ha): 5 (5-Definite injury) | Assessment (pre-emergence application) ABUTH (Abutilon theophrasti [20]; 0.400 kg/ha): 8 (8-Approaching complete kill) | Assessment (pre-emergence application) MATIN (Matricaria inodora [21]; 0.025 kg/ha): 8 (8-Approaching complete kill) | Assessment (pre-emergence application) MATIN (Matricaria inodora [21]; 0.100 kg/ha): 8 (8-Approaching complete kill) | Assessment (pre-emergence application) MATIN (Matricaria inodora [21]; 0.400 kg/ha): 8 (8-Approaching complete kill) | Assessment (pre-emergence application) ECHCG (Echinochloa crus-galli [22]; 0.025 kg/ha): 3 (3-Moderate effect) | Assessment (pre-emergence application) ECHCG (Echinochloa crus-galli [22]; 0.100 kg/ha): 4 (4-Injury) | Assessment (pre-emergence application) ECHCG (Echinochloa crus-galli [22]; 0.400 kg/ha): 7 (7-Good herbicidal effect) | Assessment (pre-emergence application) ORYSA (Orysa sativa [23]; 0.025 kg/ha): 0 (0-No effect) | Assessment (pre-emergence application) ORYSA (Orysa sativa [23]; 0.100 kg/ha): 1 (1-Trace effect) | Assessment (pre-emergence application) ORYSA (Orysa sativa [23]; 0.400 kg/ha): 1 (1-Trace effect) | Assessment (pre-emergence application) TRZWA (Triticum aestivum [24]; 0.025 kg/ha): 1 (1-Trace effect) | Assessment (pre-emergence application) TRZWA (Triticum aestivum [24]; 0.100 kg/ha): 2 (2-Slight effect) | Assessment (pre-emergence application) TRZWA (Triticum aestivum [24]; 0.400 kg/ha): 3 (3-Moderate effect) | Assessment (pre-emergence application) GLXMA (Glycine max [25]; 0.025 kg/ha): 2 (2-Slight effect) | Assessment (pre-emergence application) GLXMA (Glycine max [25]; 0.100 kg/ha): 2 (2-Slight effect) | Assessment (pre-emergence application) GLXMA (Glycine max [25]; 0.400 kg/ha): 3 (3-Moderate effect) | Assessment (pre-emergence application) SETVI (Setaria viridis [26]; 0.025 kg/ha): 5 (5-Definite injury) | Assessment (pre-emergence application) SETVI (Setaria viridis [26]; 0.100 kg/ha): 8 (8-Approaching complete kill) | Assessment (pre-emergence application) SETVI (Setaria viridis [26]; 0.400 kg/ha): 9 (9-Complete kill) | Assessment (pre-emergence application) ALOMY (Alopecurus myosuroides [27]; 0.025 kg/ha): 2 (2-Slight effect) | Assessment (pre-emergence application) ALOMY (Alopecurus myosuroides [27]; 0.100 kg/ha): 3 (3-Moderate effect) | Assessment (pre-emergence application) ALOMY (Alopecurus myosuroides [27]; 0.400 kg/ha): 6 (6-Herbicidal effect) | Assessment (pre-emergence application) DIGSA (Digitaria sanguinalis [28]; 0.025 kg/ha): 6 (6-Herbicidal effect) | Assessment (pre-emergence application) DIGSA (Digitaria sanguinalis [28]; 0.100 kg/ha): 6 (6-Herbicidal effect) | Assessment (pre-emergence application) DIGSA (Digitaria sanguinalis [28]; 0.400 kg/ha): 8 (8-Approaching complete kill)
